Measured values taken from patent publication US20230190741A1, “LONG-LASTING REABSORBABLE SUBCUTANEOUS IMPLANT WITH SUSTAINED RELEASE OF PRE-CONCENTRATED PHARMACOLOGICALLY ACTIVE SUBSTANCE IN POLYMER FOR THE TREATMENT OF ERECTILE DYSFUNCTION AND BENIGN PROSTATIC HYPERPLASIA” (priority 2020, published 2023).

Key:
[1] = oral administration; cited from earlier work
[2] = half-life of the oral drug; type: in vivo; details: tadalafil vs sildenafil
erectile dysfunction = details: injection 10 mcg or 20 mcg applied directly to the penis, cited from earlier work

half-life relative to half-life of sildenafil [2] [times]	SMILES	loss of drug ingested (first-pass metabolism plus absorptive process) [1] [%]	duration of effect (erectile dysfunction; depending on the patient) [h]	time until effect after application (erectile dysfunction) [min]
4.38	CN1CC(=O)N2[C@H](c3ccc4c(c3)OCO4)c3[nH]c4ccccc4c3C[C@@H]2C1=O [tadalafil]	≤ 50	–	–
–	CCCCC[C@H](O)/C=C/[C@H]1[C@H](O)CC(=O)[C@@H]1CCCCCCC(=O)O [alprostadil]	–	≤ 2	20
